In patent publication US7803774B2, “Modulators of β-amyloid peptide aggregation” (Praecis Pharmaceuticals, Inc., priority 1999, dated 2010):
Counter-ions that a name gives are not always drawn.

Legend:
Aβ1-40 [1] = biological target: T1, Aβ1-40 (Homo sapiens, UniProt P05067); assay: Nucleation assay (turbidity, change in lag time of Aβ aggregation); assay type: biochemical; settings: for Nucleation assay data: footnote *: measured at 1.25 μM of compound; for Nucleation assay data / Nucleation assay data 0.3 μM / Nucleation assay data 1 μM / Nucleation assay data 3 μM: Table II; for Nucleation assay Δ lag 1.25 μM: 1.25 μM test compound; for Nucleation assay Δ lag 1.25 μM / Nucleation assay Δ lag 5 μM / Nucleation assay Δ lag […] / Nucleation assay data 3 μM: 5 μM Aβ1-40; for Nucleation assay Δ lag 1.25 μM / Nucleation assay Δ lag […]: ratio to control lag time; for Nucleation assay Δ lag 5 μM: 5 μM test compound, ratio of lag time with compound to lag time of control; for Nucleation assay Δ lag […]: […] test compound; for Nucleation assay data 0.3 μM: 0.3 μM test compound; for Nucleation assay data 0.3 μM / Nucleation assay data 1 μM / Nucleation assay data 3 μM: ΔLag ratio to control; for Nucleation assay data 1 μM: 1 μM test compound; for Nucleation assay data 3 μM: 3 μM test compound
T1 construct: first Aβ1-40 peptide is dissolved in HFIP
Description: The nucleation assay is employed to determine the ability of test compounds to alter (e.g. inhibit) the early events in formation of β-AP fibers from monomeric β-AP. Characteristic of a nucleated polymerization mechanism, a lag time is observed prior to nucleation, after which the peptide rapidly forms fibers as reflected in a linear rise in turbidity. The time delay before polymerization of β-AP monomer can be quantified as well as the extent of formation of insoluble fiber by light scattering (turbidity). Polymerization reaches equilibrium when the maximum turbidity reaches a plateau. The turbidity of a solution of natural β-AP in the absence or presence of various concentrations of a β-amyloid modulator compound is determined by measuring the apparent absorbance of the solution at 405 nm (A405nm) over time. The threshold of sensitivity for the measurement of turbidity is in the range of 15-20 μM β-AP. […] This assay can be performed using stirring or shaking to accelerate polymerization, thereby increasing the speed of the assay. Moreover the assay can be adapted to a 96-well plate format to screen multiple compounds.
To perform the nucleation assay, first Aβ1-40 peptide is dissolved in HFIP (1,1,1,3,3,3-Hexafluoro-2-propanol; Aldrich 10,522-8) at a concentration of 2 mg peptide/ml and incubated at room temperature for 30 min. HFIP-solubilized peptide is sonicated in a waterbath sonicator for 5 min at highest setting, then evaporated to dryness under a stream of argon. The peptide film is resuspended in anhydrous dimethylsulfoxide (DMSO) at a concentration of 6.9 mg/ml (25× concentration), sonicated for 5 min as before, then filtered through a 0.2 micron nylon syringe filter (VWR cat. No. 28196-050). Test compounds are dissolved in DMSO at a 100× concentration. Four volumes of 25×Aβ1-40 peptide in DMSO are combined with one volume of test compound in DMSO in a glass vial, and mixed to produce a 1:1 molar ratio of AP peptide to test compound. For different molar ratios, test compounds are diluted with DMSO prior to addition to Aβ1-40, in order to keep the final DMSO and Aβ1-40 concentrations constant. […] Ten microliters of the mixture is then added to the bottom of a well of a Corning Costar ultra low binding 96-well plate (Coming Costar, Cambridge Mass.; cat. No. 2500). Ninety microliters of water is added to the well, the plate is shaken on a rotary shaken at a constant speed at room temperature for 30 seconds, an additional 100 μl of 2×PTL buffer (20 mM NaH2PO4, 300 mM NaCl, pH 7.4) is added to the well, the plate is reshaken for 30 seconds and a baseline (t=0) turbidity reading is taken by measuring the apparent absorbance at 405 nm using a Bio-Rad Model 450 Microplate Reader. The plate is then returned to the shaker and shaken continuously for 5 hours. Turbidity readings are taken at 15 minute intervals.
β-amyloid aggregation in the absence of any modulators results in enhanced turbidity of the natural β-AP solution (i.e., an increase in the apparent absorbance at 405 nm over time).
The modulator compounds were evaluated in nucleation assays utilizing 5 μM Aβ1-40 and either 5 μM, 2.5 μM, 1.25 μM, 3 μM, 1 μM, or 0.3 μM test compound. The change in lag time (ΔLag) is presented as the ratio of the lag time observed in the of the test compound (at either 5 μM, 2.5 μM, 1.25 μM, 3 μM, 1 μM, or 0.3 μM) to the lag time of the control.

Aβ1-40 [2] = biological target: T1, Aβ1-40; assay: as above; assay type: biochemical; settings: for Nucleation assay data: footnote *: measured at 0.6 μM of compound, Table II
[3] = BUI#77: IN VIVO: IV BRAIN LEVELS @ 1 HOUR post 1 mL x 1 min IV
Description: Table printed on a drawing sheet, Fig. 1
Title: BUI#77: IN VIVO: IV BRAIN LEVELS @ 1 HOUR post 1 mL x 1 min IV
The patent's description of the figure: FIG. 1 is a table depicting the results from a brain uptake assay.
First reader's note: Rows with only a Structure cell (l-v-f-f-a, TFA. l-v-f-f-l, TFA. l-f-f-v-l) are bold group headings for the rows below them; the asterisk printed in the gap before the UNIT DOSE block is kept in its own unheaded column.

T1 sequence (P05067 672-711): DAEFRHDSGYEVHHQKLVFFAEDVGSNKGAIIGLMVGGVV

## 2TFA.H-lvf-NH-NH-fvl-H [PPI-1125]
Aβ1-40 [1]
  Nucleation assay data: >2.5
Aβ1-40 [2]
  Nucleation assay data: 2.0

## TFA.N,N-dimethyl-(Gaffv1)-NH2 [PPI-803]
Aβ1-40 [1]
  Nucleation assay Δ lag 1.25 μM: <1
  Nucleation assay Δ lag 5 μM: <1
  Nucleation assay Δ lag […]: <1

## 2TFA.H-(lfkvl)-NH2 [PPI-1321]
Aβ1-40 [1]
  Nucleation assay data 0.3 μM: <1
  Nucleation assay data 1 μM: <1
  Nucleation assay data 3 μM: <1

## TFA.H-(lvffa)-isopropylamide [PPI-992]
Aβ1-40 [1]
  Nucleation assay Δ lag 1.25 μM: 1
  Nucleation assay Δ lag 5 μM: 3
  Nucleation assay Δ lag […]: 1

## TFA.H-(lf-D-Cha-vl)-NH2 [PPI-1318]
Aβ1-40 [1]
  Nucleation assay data 0.3 μM: 1
  Nucleation assay data 1 μM: 2
  Nucleation assay data 3 μM: >5

## CC(C)C[C@@H](N)C(=O)N[C@H](Cc1c(F)c(F)c(F)c(F)c1F)C(=O)N[C@H](Cc1ccccc1)C(=O)N[C@@H](C(=O)N[C@H](CC(C)C)C(N)=O)C(C)C [PPI-1324, TFA.H-(l-[F5]f-fvl)-NH2]
[3]
  MAX SOLUBILITY | Brain Levels (nM) + CsA | mean: 23 nM
  MAX SOLUBILITY | Brain Levels (nM) | mean: 4.1 nM
  UNIT DOSE (2mg/kg IV) | (+)CsA: 9 nM
  UNIT DOSE (2mg/kg IV) | ALONE: 2 nM

## TFA.H-(lf-[F5]f-vl)-NH2 [PPI-1320]
Aβ1-40 [1]
  Nucleation assay data 0.3 μM: 1
  Nucleation assay data 1 μM: 3
  Nucleation assay data 3 μM: >5

## CC(C)C[C@@H](N)C(=O)N[C@@H](C(=O)N[C@H](Cc1ccccc1)C(=O)N[C@H](Cc1ccccc1)C(=O)N[C@H](C)C(N)=O)C(C)C [655 | 655, TFA. H-(lvffa)-NH2]
[3]
  MAX SOLUBILITY | Brain Levels (nM) + CsA | mean: 50 nM
  MAX SOLUBILITY | Brain Levels (nM) | mean: 7.9 nM
  UNIT DOSE (2mg/kg IV) | (+)CsA: 22 nM
  UNIT DOSE (2mg/kg IV) | ALONE: 3 nM

## TFA.N,N-dimethyl-(affvl)-NH2 [PPI-913]
Aβ1-40 [1]
  Nucleation assay Δ lag 1.25 μM: 1
  Nucleation assay Δ lag 5 μM: 1
  Nucleation assay Δ lag […]: 1

## TFA.N-ethyl-(Gaffvl)-NH2 [PPI-969]
Aβ1-40 [1]
  Nucleation assay Δ lag 1.25 μM: 3
  Nucleation assay Δ lag 5 μM: >5
  Nucleation assay Δ lag […]: >5

## CC(C)C[C@@H](N)C(=O)N[C@H](Cc1ccccc1)C(=O)N[C@H](Cc1ccccc1)C(=O)N[C@@H](C(=O)N[C@H](CC(C)C)C(N)=O)C(C)C [578 | 578, TFA. H-(lffvl)-NH2]
[3]
  MAX SOLUBILITY | Brain Levels (nM) + CsA | mean: 57 nM
  MAX SOLUBILITY | Brain Levels (nM) | mean: 7.6 nM
  UNIT DOSE (2mg/kg IV) | (+)CsA: 16 nM
  UNIT DOSE (2mg/kg IV) | ALONE: 2 nM

## TFA.N-methyl-(lvffl)-NH2 [PPI-1019]
Aβ1-40 [1]
  Nucleation assay data: >2.5
Aβ1-40 [2]
  Nucleation assay data: 2.0

## TFA.H-(lvffa)-dimethylamide [PPI-993]
Aβ1-40 [1]
  Nucleation assay Δ lag 1.25 μM: 1
  Nucleation assay Δ lag 5 μM: 1
  Nucleation assay Δ lag […]: 1

## CN[C@H](CC(C)C)C(=O)N[C@@H](C(=O)N[C@H](Cc1ccccc1)C(=O)N[C@H](Cc1ccccc1)C(=O)N[C@H](C)C(N)=O)C(C)C [1019 | 1019, TFA. N-methyl-(lvffa)-NH2]
[3]
  MAX SOLUBILITY | Brain Levels (nM) + CsA | mean: 29 nM
  MAX SOLUBILITY | Brain Levels (nM) | mean: 7.2 nM
  UNIT DOSE (2mg/kg IV) | (+)CsA: 17 nM
  UNIT DOSE (2mg/kg IV) | ALONE: 4 nM

## TFA.N-methyl-(Gaffvl)-NH2 [PPI-968]
Aβ1-40 [1]
  Nucleation assay Δ lag 1.25 μM: 2
  Nucleation assay Δ lag 5 μM: >5
  Nucleation assay Δ lag […]: >5

## TFA.N,N-diethyl-(Gaffvl)-NH2 [PPI-1005]
Aβ1-40 [1]
  Nucleation assay Δ lag 1.25 μM: 1
  Nucleation assay Δ lag 5 μM: 3
  Nucleation assay Δ lag […]: 3

## TFA.H-(Glvffl)-NH2 [PPI-1013]
Aβ1-40 [1]; footnote #: measured at 1.25 μM of compound, Table I
  Nucleation assay Δ lag: >3
Aβ1-40 [2]; footnote #: measured at 0.6 μM of compound, Table I
  Nucleation assay Δ lag: 2

## TFA.N-isopropyl-(Gaffvl)-NH2 [PPI-970]
Aβ1-40 [1]
  Nucleation assay Δ lag 1.25 μM: 1
  Nucleation assay Δ lag 5 μM: >5
  Nucleation assay Δ lag […]: >5

## TFA.N,N-diethyl-(affvl)-NH2 [PPI-1006]
Aβ1-40 [1]
  Nucleation assay Δ lag 1.25 μM: 1
  Nucleation assay Δ lag 5 μM: 1
  Nucleation assay Δ lag […]: 1
